Experimental data from patent US20040152694A1, “Methods and compositions for treating inflammatory disorders of the airways” (priority 2003, published 2004).
Read-outs that look alike come from different tables or passages of the source.

Legend:
[1] = test system: trachea of ovalbumin-sensitized and challenged BN-rats; experiment: Tracheal contraction to acetylcholine ex vivo after antigen challenge, systemic (intraperitoneal) NBQX; assay type: in vivo, rat
Protocol: (§1) Rats were actively sensitized to ovalbumin (OA) by a subcutaneous injection of 0.5 ml of OA/Al(OH3) gel mixture (2 mg OA+10 g Al(OH3)/100 ml saline) on day 1 with subsequent subcutaneous injections (10 mg OA+10 g Al(OH3)/100 ml saline) given on days 14 and 21. On day 28, animals received GYKI-52466, GYKI-47261 or GYKI-53773 compound orally (0.3 mg/kg or 3.0 mg/kg) 2 hours before antigen challenge. Antigen challenge was performed by inhalation of nebulised ovalbumin (1% antigen solution administered in a TSE inhalation system for 1 hour). Animals were sacrificed 48 hours post antigen challenge wherein the tracheas were removed to an organ bath. Dissected tracheas were allowed to equilibrate for 30 minutes before measuring tracheal spasmogenic response curves to acetylcholine (Ach).
The procedures of Example 2 were followed in order to compare the effects of antigen exposure and systemic (intraperitoneal) NBQX treatments on Ach-induced tracheal contractions in allergen sensitized and challenged rats.

[2] = test system: trachea of ovalbumin-sensitized and challenged BN-rats; experiment: Tracheal contraction to acetylcholine ex vivo after antigen challenge, local (intratracheal) NBQX; assay type: in vivo, rat; settings: for ED50: −log M acetylcholine (Ach) causing 50% contraction relative to control / MAX: Contraction at maximal Ach concentration relative to control: local
[3] = test system: Rat aortic smooth muscle cells (primary); experiment: Growth factor-induced proliferation of smooth muscle cells, 3H-thymidine incorporation, RASMC; assay type: cell-based
Protocol: (§2) Primary and permanently cultured rat aortic smooth muscle cells were made senescent by serum deprivation (0.1% FCS, 48 hours). Proliferation was induced by re-addition of serum (10%) containing the necessary growth factors and the effect of different concentrations of the AMPA receptor modulators on the proliferation of the cells was determined by measuring ^3H-thymidine incorporation.

[4] = test system: AMPA receptors; experiment: Ventilated, perfused rat lung: AMPA-induced lung injury
Protocol: The presence/function of AMPA receptors in the lung of experimental animals was investigated in the same model (ventilated perfused rat lung) that was applied for the examination of NMDA-receptors by Said et al., (Proc Natl. Acad. Sci. (USA) 93:4688 (1996). The lung of anesthetized SPRD rats were ventilated and were in situ perfused with a constant flow of Krebs solution. L-arginine, AMPA and AMPA-antagonist were added directly to the perfusate as described by Said et al, supra. As it is shown in Table 2, activation of the AMPA receptors triggered an acute edematous lung injury manifested by the significant increase in airway pressure (PAW) pulmonary artery pressure (PAP) and the ratio of wet and dry weight of the lung after the treatment.

[5] = test system: trachea of ovalbumin-sensitized and challenged BN-rats; experiment: Tracheal contraction to acetylcholine ex vivo after antigen challenge, oral pretreatment; assay type: in vivo, rat; settings: for MAX: Contraction at maximal Ach concentration relative to control / ED50: −log M acetylcholine (Ach) causing 50% contraction relative to control: 3.0 mg/kg orally 2 hours before antigen challenge, mean ± SEM; for MAX: Contraction at maximal Ach concentration relative to control: control = 100; for ED50: −log M acetylcholine (Ach) causing 50% contraction relative to control: trachea 48 h post challenge; for Tracheal hyper-reactivity to acetylcholine after ovalbumin challenge: dose of 3.0 mg/kg, oral
Protocol: as §1

[6] = test system: trachea of ovalbumin-sensitized and challenged BN-rats; experiment: Tracheal contraction to acetylcholine ex vivo after antigen challenge, local (intratracheal) treatment with GYKI-53773; assay type: in vivo, rat
Protocol: as §1
The procedures of Example 2 were followed in order to compare the effects of antigen exposure and local (intratracheal) GYKI 53773 treatments on Ach-induced tracheal contractions in allergen sensitized and challenged rats.

[7] = test system: isolated guinea pig trachea; experiment: Endothelin-1-induced contraction of isolated guinea pig trachea in vitro; settings: for Emax at 10 µM / Emax at 30 µM: Cavia porcellus, 25 min, read-out: Contraction %: percent of maximal response to 4.5 μM histamine
Protocol: In order to measure the effect of GYKI 52466 and 53773 (talampanel) on endothelin-1-induced contractions in isolated guinea pig trachea the following procedures were followed. The tracheae of male Dunkin-Hartley guinea pigs (350-450 g) were removed; helical strips were prepared and mounted in an organ bath. After equilibration, the strips were contracted with endothelin-1 and when contraction had reached the plateau, different concentrations of GYKI-52466, 53773 or the suitable vehicles were added into the chambers. Changes in tensions were expressed as the percentage of the maximal response to 4.5 μM histamine measured at the beginning of the experiment.

[8] = test system: airways epithelial cells of antigen sensitized BN rats; experiment: Allergen-induced mucus production of airways epithelial cells, PAS staining; assay type: in vivo, rat; settings: mean ± SEM
Protocol: Antigen sensitized BN rats were pretreated orally with 0.3, 3 and 30 mg/kg GYKI-52466 or GYKI-53773 (Talampanel) 2 hours prior to antigen challenge using a similar protocol that was described in Example 2. Lungs were isolated 48 hours subsequent to antigen exposure; samples were fixed in phosphate-buffered 8% formalin. Specimens were then routinely processed for histochemistry. In the periodic acid-Schiff stained (PAS) and haematoxylin-eosin counterstained, 5 μm thick sections, all epithelial cells of each airway segments were counted in the whole preparations at a magnification of 400×. The number of PAS(+) [mucus-producing] epithelial cells are expressed as the ratio of all epithelial cells.

[9] = test system: A7r5 established smooth muscle cell line (ATCC); experiment: Growth factor-induced proliferation of smooth muscle cells, 3H-thymidine incorporation, A7r5; assay type: cell-based, rat
Protocol: as §2

[10] = second dose column (dose number not given)
[11] = third (highest) dose column (dose number not given)
[12] = AMPA (200 μM) alone in perfusate, SPRD rats
[13] = third dose column (dose number not given)
[14] = 0.3 mg/kg orally 2 hours prior to antigen challenge, lungs 48 hours after
[15] = 3 mg/kg orally 2 hours prior to antigen challenge
[16] = 30 mg/kg orally 2 hours prior to antigen challenge

For `NS(=O)(=O)c1cccc2c1c([N+](=O)[O-])cc1[nH]c(=O)c(=O)[nH]c12` [NBQX, 2,3-Dihydroxy-6-nitro-7-sulphamoyi-benzo(f)quinoxaline], the “ED50: −log M acetylcholine (Ach) causing 50% contraction relative to control” value ([1]; 0.15 mg/kg intraperitoneal, challenged 7.31, control 6.16) was 6.29 ± 0.51 −log M, the “MAX: Contraction at maximal Ach concentration relative to control” value ([1]; 0.15 mg/kg intraperitoneal, challenged 308, control 100) was 178 ± 65 and the “ED50: −log M acetylcholine (Ach) causing 50% contraction relative to control” value ([1]; 1.5 mg/kg intraperitoneal) was 4.98 ± 0.80 −log M. The “MAX: Contraction at maximal Ach concentration relative to control” value ([1]; 1.5 mg/kg intraperitoneal) was 115 ± 30, the “ED50: −log M acetylcholine (Ach) causing 50% contraction relative to control” value ([1]; 15 mg/kg intraperitoneal) was 5.11 ± 0.55 −log M and the “MAX: Contraction at maximal Ach concentration relative to control” value ([1]; 15 mg/kg intraperitoneal) was 125 ± 32. The “Allergen-induced airways hypersensitivity, ED50 and maximal provoked response” value ([1]; intraperitoneal, dose-dependent) was “strongly inhibits both parameters”, the “Allergen-induced airways hypersensitivity” value ([2]; local administration, statistically significant only at the highest applied dose) was “inhibits allergen-induced airways hypersensitivity in a dose-dependent manner” and the “ED50: −log M acetylcholine (Ach) causing 50% contraction relative to control” value ([2]; first dose column (dose number not given), challenged 6.70, control 5.68) was 5.85 ± 0.59 −log M. For the same compound, the “MAX: Contraction at maximal Ach concentration relative to control” value ([2]; first dose column (dose number not given), challenged 327, control 100) was 308 ± 128, the “ED50: −log M acetylcholine (Ach) causing 50% contraction relative to control” value [2, 10] was 5.20 ± 0.72 −log M and the “MAX: Contraction at maximal Ach concentration relative to control” value [2, 10] was 108 ± 28. For the same compound, the “ED50: −log M acetylcholine (Ach) causing 50% contraction relative to control” value [2, 11] was 3.44 ± 0.36 −log M, the “MAX: Contraction at maximal Ach concentration relative to control” value [2, 11] was 60 ± 14 and the “Inhibition (% of control) RASMC” value ([3]; 0.03 μg/ml) was 1 % of control. For the same compound, the “Inhibition (% of control) RASMC” value ([3]; 0.3 μg/ml) was 5 % of control and the “Inhibition (% of control) RASMC” value ([3]; 3.0 μg/ml) was 94 % of control.

For `Cc1onc(O)c1CC(N)C(=O)O` (stereo not drawn) [AMPA, α-Amino-3-hydroxy-5-methyl-4-isoxazole propionate], the “PAP: Pulmonary artery pressure after 60 minutes perfusion as a percent of 0 minute pressure” value [4, 12] was 147.9 ± 8.6 (7) percent, the “W/D: Ratio of wet and dry weight of lungs after 60-minute perfusion” value [4, 12] was 14.8 ± 3.9 (3) and the “PAW: Airway pressure after 60 minute perfusion as a percent of 0 minute pressure” value ([4]; AMPA (200 μM) alone in perfusate, SPRD rats, n in brackets) was 183.4 ± 15.6 (7) percent.

In the case of `Cc1cn2c(n1)Cc1ccc(Cl)cc1C(c1ccc(N)cc1)=N2` [GYKI-47261], the “MAX: Contraction at maximal Ach concentration relative to control” value [5] is reported as 98 ± 13, the “ED50: −log M acetylcholine (Ach) causing 50% contraction relative to control” value [5] is reported as 5.26 ± 0.30 −log M and the “Tracheal hyper-reactivity to acetylcholine after ovalbumin challenge” value (“Tracheal hyper-reactivity” for short) [5] is reported as “brought this elevation back to control level”.

`CC(=O)N1N=C(c2ccc(N)cc2)c2cc3c(cc2CC1C)OCO3` (single isomer, unassigned; (-)) [GYKI-53773, (−)-1-(4-Aminophenyl)-3-acetyl-4-methyl-3,4-dihydro-7,8-methylenedioxy-5H-2,3-benzodiazepine] was tested, and the “MAX: Contraction at maximal Ach concentration relative to control” value [5] was 85 ± 16, the “ED50: −log M acetylcholine (Ach) causing 50% contraction relative to control” value [5] was 4.64 ± 0.34 −log M and the “Tracheal hyper-reactivity” value [5] was “brought this elevation back to control level”. For the same compound, the “Allergen-induced airways hyperresponsiveness” value ([6]; 1 μg/kg, single administration) was “strongly reduced the allergen-induced airways hyperresponsiveness”, the “ED50: −log M acetylcholine (Ach) causing 50% contraction relative to control” value ([6]; first dose column (dose number not given), challenged 7.22, control 5.89) was 5.80 ± 0.47 −log M and the “MAX: Contraction at maximal Ach concentration relative to control” value ([6]; first dose column (dose number not given), challenged 312, control 100) was 202 ± 66. For the same compound, the “ED50: −log M acetylcholine (Ach) causing 50% contraction relative to control” value [6, 10] was 5.73 ± 0.39 −log M, the “MAX: Contraction at maximal Ach concentration relative to control” value [6, 10] was 113 ± 19 and the “ED50: −log M acetylcholine (Ach) causing 50% contraction relative to control” value [6, 13] was 5.68 ± 0.55 −log M. For the same compound, the “MAX: Contraction at maximal Ach concentration relative to control” value [6, 13] was 129 ± 30, the “Contraction caused by ET-1 in the isolated guinea pig trachea” value [7] was “dose-dependently inhibit the contraction” and the Emax at 10 µM ([7]; 10 μM, 25 minutes after addition, vehicle 84 ± 8, Mean ± SD (n)) was 43 ± 9%. The Emax at 30 µM ([7]; 30 μM, 25 minutes after addition, vehicle 66 ± 8, Mean ± SD (n)) was 7 ± 4%, the “% PAS(+) cells of total epithelial cells” value [8, 14] was 12.34 ± 1.39% and the “% PAS(+) cells of total epithelial cells” value [8, 15] was 9.49 ± 1.08%. For the same compound, the “% PAS(+) cells of total epithelial cells” value [8, 16] was 5.02 ± 0.75%, the “Inhibition (% of control) RASMC” value ([3]; 0.03 μg/ml) was 26 % of control and the “Inhibition (% of control) RASMC” value ([3]; 0.3 μg/ml) was 59 % of control. For the same compound, the “Inhibition (% of control) RASMC” value ([3]; 3.0 μg/ml) was 70 % of control, the “Inhibition (% of control) A7r5” value ([9]; 0.03 μg/ml) was 21 % of control and the “Inhibition (% of control) A7r5” value ([9]; 0.3 μg/ml) was 43 % of control. For the same compound, the “Inhibition (% of control) A7r5” value ([9]; 3.0 μg/ml) was 87 % of control.

`CNC(=O)N1N=C(c2ccc(N)cc2)c2cc3c(cc2CC1C)OCO3` (single isomer, unassigned; (-)) [GYKI-53784, (−)-1-(4-Aminophenyl)-3-methylcarbamoyl-4-methyl-7,8-methylenedioxy-3,4-dihydro-5H-2,3-benzodiazepine] was tested, and the “W/D: Ratio of wet and dry weight of lungs after 60-minute perfusion” value ([4]; AMPA (200 μM) + 53784 (200 μM), AMPA alone 14.8, control 6.6) was 14.3 ± 5.6 (4), the “PAP: Pulmonary artery pressure after 60 minutes perfusion as a percent of 0 minute pressure” value ([4]; AMPA (200 μM) + 53784 (200 μM), AMPA alone 147.9, control 96.0) was 114.0 ± 23.0 (4) percent and the “PAW: Airway pressure after 60 minute perfusion as a percent of 0 minute pressure” value ([4]; AMPA (200 μM) + 53784 (200 μM), AMPA alone 183.4, control 99.3) was 110.3 ± 19.1 (4) percent. The “Effect on airway and pulmonary arterial pressures” value ([4]; AMPA-treated perfused rat lung) was “decreased both the airway and the pulmonary arterial pressures”.

With `CC1=NN=C(c2ccc(N)cc2)c2cc3c(cc2C1)OCO3` [GYKI-52466, 1-(4-Aminophenyl)-4-methyl-7,8-methylenedioxy-5H-2,3-benzodiazepine] the “MAX: Contraction at maximal Ach concentration relative to control” value [5] was 135 ± 32, the “ED50: −log M acetylcholine (Ach) causing 50% contraction relative to control” value [5] was 5.60 ± 0.46 −log M and the “Tracheal hyper-reactivity” value [5] was “brought this elevation back to control level”. For the same compound, the “Contraction caused by ET-1 in the isolated guinea pig trachea” value [7] was “dose-dependently inhibit the contraction”, the Emax at 10 µM [7] was 53 ± 7% and the Emax at 30 µM [7] was 23 ± 9%. For the same compound, the “% PAS(+) cells of total epithelial cells” value [8, 14] was 16.09 ± 1.82%, the “% PAS(+) cells of total epithelial cells” value [8, 15] was 15.18 ± 1.68% and the “% PAS(+) cells of total epithelial cells” value [8, 16] was 14.17 ± 1.59%.
